Laboratory results: US9073830B2 (Hyundai Pharm Co., Ltd., priority 2011, dated 2015)

Tests used:
glucocorticoid receptor = target: T1, glucocorticoid receptor (Homo sapiens, UniProt P04150); test: Competitive binding of glucocorticoid receptor (LanthaScreen TR-FRET); details: final concentration 10 uM
T1 construct: 4× GR-LBD up to 4 nM, and 4× Tb anti-GST Antibody up to 8 nM; purchased Invitrogen PV6040
T1 sequence (P04150 524-758 limits assumed): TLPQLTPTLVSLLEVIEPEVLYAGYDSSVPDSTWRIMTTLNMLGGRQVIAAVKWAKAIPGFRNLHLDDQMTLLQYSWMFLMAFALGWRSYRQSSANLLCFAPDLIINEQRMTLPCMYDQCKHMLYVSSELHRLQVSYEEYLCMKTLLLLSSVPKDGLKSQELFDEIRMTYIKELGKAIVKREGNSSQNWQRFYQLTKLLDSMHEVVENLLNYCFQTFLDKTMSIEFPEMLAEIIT
Method: In order to confirm the selective inhibitory ability of 11β-HSD1 inhibitor, competitive binding between 11β-HSD1 inhibitor and glucocorticoid ligand was tested by using LanthaScreen TR-FRET Glucocorticoid Receptor Competitive Binding Assay (Invitrogen, PV6040). The test material was dissolved in DMSO (Sigma, 276855) up to a 100× concentration of its final concentration (10 uM), and then Complete Nuclear Receptor Buffer F (1× stabilizing peptide, 5 mM DTT, Nuclear Receptor Buffer F) was used to dilute the test material up to a concentration of 2×, 4× Fluormone™ GS1 Green up to 20 nM, 4× GR-LBD up to 4 nM, and 4× Tb anti-GST Antibody up to 8 nM.
In order to obtain 60 μl of a final product through a reaction, on a 96-well plate, 2× test material 30 μl, 4× Fluormone™ GS1 Green 15 μl, and 4× GR-LBD/Tb anti-GST Antibody 15 μl were mixed, and reacted for 1 hour. In a positive control group, instead of the test material, Dexamethasone (Sigma, D1756), known as a ligand for glucocorticoid receptor, was used, and in a maximum active control group, DMSO was used, instead of the test material. In a negative control group, instead of the test material, DMSO was used, instead of Fluormone™ GS1 Green, Complete Nuclear Receptor Buffer F was used. On a 384-well white plate, 20 μl each was plated. By using Time-Resolved program in Flexstation3, a fluorescence value was read after excitation ([…]), emission (515 nM/486 nM), Delay time (100 μs), and Integration time (1500 μs) were programmed. By using the obtained value, a value of 515 nM/486 nM was calculated, from which the value in the negative control group was subtracted. The degree of binding of the test material to glucocorticoid receptor of was calculated by the active value of the test material with respect to the active value (100%) in the maximum active control group.

human 11β-HSD2 = target: T2, human 11β-HSD2 (Homo sapiens, UniProt P80365); test: 11b-HSD2 inhibition test in transfected CHO cells; assay type: cell-based; details: at a concentration of 10 uM; CHO cells expressing human 11β-HSD2; read-out: 11b-HSD2 inhibitory effect
T2 construct: host or cells: CHO cells
T2 sequence (P80365 1-405): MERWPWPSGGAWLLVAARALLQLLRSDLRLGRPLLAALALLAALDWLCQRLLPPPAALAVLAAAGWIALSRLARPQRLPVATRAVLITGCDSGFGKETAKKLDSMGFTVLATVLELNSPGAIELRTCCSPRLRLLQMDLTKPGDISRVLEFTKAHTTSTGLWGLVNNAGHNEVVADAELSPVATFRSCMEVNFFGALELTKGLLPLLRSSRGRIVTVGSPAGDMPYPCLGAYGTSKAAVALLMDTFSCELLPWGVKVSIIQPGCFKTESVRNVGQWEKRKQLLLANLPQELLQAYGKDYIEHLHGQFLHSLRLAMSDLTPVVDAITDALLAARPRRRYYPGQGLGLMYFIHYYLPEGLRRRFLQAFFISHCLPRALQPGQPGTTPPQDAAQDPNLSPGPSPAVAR
Method: CHO cells were plated on a 96 well plate with RPMI (Wellgene) medium (phenol red free) containing 100 μl of 10% FBS, 100 ug/ml of penicillin and 100 ug/ml of streptomycin (2×10^4 cells/well). CHO cells were transfected with plasmid (Origene, SC122552) (pCMV6-XL5 vector) expressing human 11β-HSD2 by using FuGENE6 reagent (Promega, E2311). 24 hours after transfection, the transfected cells were added with 50 nM of cortisol (Sigma) in the presence or absence of the compound at various concentrations. On the following day (24 hours later), the supernatant liquid was obtained, and through HTRF (Cisbio, 62CO2PEB) analysis, a competitive amount of cortisol was measured.

mouse 11β-HSD1 = target: T3, mouse 11β-HSD1 (Mus musculus, UniProt P50172); test: Enzyme activity analysis on mouse 11β-HSD1 (HTRF cortisol, liver microsomes); assay type: biochemical; details: second value of cell
T3 construct: 100 ug/ml human/mouse liver microsomes; from tissue; host or cells: mouse liver microsomes
Method in brief: (§1)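 Cortisol generated by mouse or human liver microsome 11β-HSD1 during 2 h at 37° C., measured by HTRF competition (cryptate anti-cortisol antibody, d2-cortisol, 2 h room temperature) against a cortisol standard curve. IC50 from percent inhibition versus no-compound control.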

human 11β-HSD1 = target: T4, human 11β-HSD1 (Homo sapiens, UniProt P28845); test: Enzyme activity analysis on human 11β-HSD1 (HTRF cortisol, liver microsomes); assay type: biochemical; details: first value of cell
T4 construct: 100 ug/ml human/mouse liver microsomes; from tissue; host or cells: human liver microsomes
Method in brief: as §1

T3 sequence (P50172 whole entry): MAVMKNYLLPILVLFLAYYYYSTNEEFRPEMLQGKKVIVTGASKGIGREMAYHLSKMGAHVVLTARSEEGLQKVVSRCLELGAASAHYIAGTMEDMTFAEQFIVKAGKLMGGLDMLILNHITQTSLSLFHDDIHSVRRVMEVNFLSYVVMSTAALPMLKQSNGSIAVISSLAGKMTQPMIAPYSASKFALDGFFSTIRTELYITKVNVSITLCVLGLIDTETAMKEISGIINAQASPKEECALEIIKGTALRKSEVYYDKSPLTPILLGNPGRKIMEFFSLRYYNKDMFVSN
T4 sequence (P28845 whole entry): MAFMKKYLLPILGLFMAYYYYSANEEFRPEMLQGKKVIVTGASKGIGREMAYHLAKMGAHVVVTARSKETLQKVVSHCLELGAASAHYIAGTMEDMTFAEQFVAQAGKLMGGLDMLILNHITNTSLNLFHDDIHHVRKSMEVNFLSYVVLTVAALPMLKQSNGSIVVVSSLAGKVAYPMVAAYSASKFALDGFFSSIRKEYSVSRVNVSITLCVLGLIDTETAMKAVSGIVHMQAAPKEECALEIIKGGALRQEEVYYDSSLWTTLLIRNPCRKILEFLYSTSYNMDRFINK

| Structure (SMILES) | binding to glucocorticoid receptor (glucocorticoid receptor) | inhibition at 10 µM (human 11β-HSD2) [%] | IC50 (mouse 11β-HSD1) [µM] | IC50 (human 11β-HSD1) [µM] |
| --- | --- | --- | --- | --- |
| Cc1ccc(S(=O)(=O)NC(C)(C)C(=O)NC2C3CC4CC2CC(C(N)=O)(C4)C3)cc1F (stereo not drawn) [compound 92, N-4-(2-(3-fluoro-4-methylphenylsulfonamido)-2-methylpropanamido)adamantane-1-carboxyamide] | did not bind to glucocorticoid receptor | ≤ 40 | 0.077 | 0.032 |
| CC(C)(NS(=O)(=O)c1ccccc1[N+](=O)[O-])C(=O)NC1C2CC3CC1CC(C(N)=O)(C3)C2 (stereo not drawn) [compound 106, N-4-(2-(2-nitrophenylsulfonamido)-2-methylpropanamido)adamantane-1-carboxyamide] | did not bind to glucocorticoid receptor | ≤ 40 | 0.04 | 0.041 |
| CC(C)(NS(=O)(=O)c1ccccc1C(F)(F)F)C(=O)NC1C2CC3CC1CC(C(N)=O)(C3)C2 (stereo not drawn) [compound 108, N-4-(2-(2-trifluoromethylphenylsulfonamido)-2-methylpropanamido)adamantane-1-carboxyamide] | did not bind to glucocorticoid receptor | ≤ 40 | 0.029 | 0.011 |
